Assay results as given in the METLIN SMRT retention time set (Domingo-Almenara et al. 2019).

Test: gradient 5% acetonitrile 3 min, to 50% in 2 min, to 85% in 15 min, held 3 min, 100 µL/min
Details: column: Zorbax Extend-C18 2.1 x 50 mm; eluents: water / acetonitrile, 0.1% formic acid
How it was run: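 Values are retention times taken from adduct peaks that software picked and an analyst inspected. The pure standards were run as mixtures of ~100 molecules on HPLC linked to a quadrupole time-of-flight mass spectrometer, in positive and negative ionization mode. A Zorbax Extend-C18 column (2.1 × 50 mm, 1.8 μm) was used at 100 μL/min with water and acetonitrile, each including 0.1% formic acid.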

| Structure (SMILES) | RP-LC retention time |
| --- | --- |
| Cc1ccc(Cn2cc(-c3noc(C4CCCC4)n3)nn2)cc1 | 1070 s |
| COc1ccc(C2CC(=O)c3c(C)nc(N4CCN(c5ccccn5)CC4)nc3C2)cc1OC (configuration not stated) | 676 s |
| Cc1ccc(-n2c(=O)c3c(cc(C)n3C)n(CC(=O)Nc3cccc(C#N)c3)c2=O)cc1 | 822 s |
| CN(CCCNC(=O)CN1C(=O)CCn2nc(-c3cn(C)c4ccccc34)cc21)Cc1ccccc1 | 645 s |
| CCN(CC)CCN1c2ccccc2Sc2ccc3ccccc3c21 | 893 s |
| COc1ncccc1CNC(=O)NCc1ccco1 | 568 s |
| CC(C)NC(=O)N(C1CCOCC1)C1CN(C(=O)c2ccnn2C)C1 | 576 s |
| CCc1noc(NC(C)=O)c1-c1ccc(C)c(S(=O)(=O)Nc2cc(Cl)ccc2C)c1 | 891 s |
| CN1C(=O)COc2cc(-c3noc(C(=O)NCCc4ccc(S(N)(=O)=O)cc4)n3)ccc21 | 721 s |
| Cc1ccc(S(=O)(=O)N2CCCCC2)cc1-c1nnc(-c2ccc(F)cc2)o1 | 1110 s |
| COc1ccc(CNC(=O)CCc2nc3ccc(C)cc3c(=O)n2C)cc1 | 748 s |
| OC(c1ccncc1)c1cccc(Cl)c1F (configuration not stated) | 586 s |
| NS(=O)(=O)c1ccc(CCNS(=O)(=O)c2cc(-c3ccno3)cs2)cc1 | 748 s |
| CCN1CCCCc2cc(C(=O)NC3CCS(=O)(=O)C3)sc21 (configuration not stated) | 790 s |
| CCCOc1nccnc1NC1CCN(C(=O)c2ccsc2)CC1 | 713 s |
| CCC(C)NC(=O)Nc1cc2c(cc1Oc1ccccc1)n(C)c(=O)n2C (configuration not stated) | 853 s |
| CCn1cc(-c2nc(C(=O)NCc3ccc(F)c(Cl)c3)cs2)c2cccnc21 | 1050 s |
| COC(=O)c1ccccc1OCc1cc(=O)oc2ccc(C)cc12 | 983 s |
| O=C([C@@H]1C[C@H](Oc2ccccc2)CN1C(=O)COc1ccccc1)N1CCCC1 | 828 s |

| Structure (SMILES) | RP-LC retention time |
| --- | --- |
| O=C(CCC(=O)N1CC2CCCN2c2ccccc21)NCc1ccccn1 (configuration not stated) | 639 s |
| COCCCNC(=O)c1ncoc1-c1ccccc1C(=O)N1CCCC1 | 645 s |
| Cc1ccccc1CNC(=O)CN1C(=O)CCCc2cc(S(=O)(=O)N3CCCCC3)ccc21 | 911 s |
| Cc1ccc(CNC(=O)Cn2nc(C)c3nn(-c4ccc(Cl)cc4)c(-n4cccc4)c3c2=O)o1 | 1040 s |
| O=C(Cc1cccc(F)c1)NC(c1ccccc1)c1nnc(N2CCCC2)o1 (configuration not stated) | 771 s |
| Cc1ccsc1CN1CC(Oc2ccc(-c3noc(C4CCOCC4)n3)cc2)C1 | 690 s |
| CCOc1ccc(-c2nc(Cc3noc(-c4ccccc4)n3)c(C)o2)cc1 | 1200 s |
| Cc1ccc(Cn2c(CN3CC(C)OC(C)C3)nc3c2c(=O)n(C)c(=O)n3C)cc1 (configuration not stated) | 700 s |
| CCOCCCN1C(=O)c2cc(-c3ccccc3)nn2CC1(C)C(=O)NCc1ccccc1 (configuration not stated) | 914 s |
| COc1ccccc1N1CCN(C(=O)Cn2ccc3ccc(-c4nnc(C)o4)cc32)CC1 | 786 s |
| CCCc1noc(-c2ccnc(-n3cnc(C(=O)N4CCCC4)c3)c2)n1 | 789 s |
| Cc1ccc2cc(CCC(=O)NCc3ccncc3)c(=O)[nH]c2c1 | 570 s |
| O=C(c1nnn(-c2ccccc2Cl)c1-c1ccncc1)N1CCN(c2ccccn2)CC1 | 973 s |
| CCOc1ccc(CC(=O)N2CCN(c3c(C)n(C)c(=O)n(C)c3=O)CC2)cc1OCC | 742 s |
| CCOC(=O)C1CCN(C(=O)CCCn2c(=O)c3cccn3c3ccc(Br)cc32)CC1 | 974 s |
| CCC(CC)NS(=O)(=O)c1cc(-c2[nH]ncc2C(=O)N(C)C)oc1C | 659 s |
| O=C(CCn1ccnc1)N1CCC2(CCC(=O)N(CC3CC3)CC2)CC1 | 577 s |
| Cc1sc2cc(C(=O)NC(C)C)[nH]c2c1CN1CCCCC1 | 643 s |
